Assay results: PubChem BioAssay AID504861 (Broad Institute, 2011)
Active and inactive are the calls of the source.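 The calls were made as follows: active = compounds lowering cell viability signal with fitted half-maximal concentration at most ten times their highest tested concentration; inconclusive = flat fit with 30 to 70% signal loss, or poor fit; inactive = the rest.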

Test system: HEK293T viability, CellTiter-Glo ATP luminescence, 48 h
Test: cytotoxicity in HEK293T cells – cell-based, CellTiter-Glo luminescence, cherry-picks, cytotoxicity control for LMP1 NF-kB inhibitor project, dose response (AID 504861)

Compound	AC50
CC(=O)NC(c1ccc(C(C)C)cc1)c1ccc2cccnc2c1O (stereo unspecified)	1.2 µM
Clc1ccc(SCc2cc(N3CCOCC3)nc(-c3ccccn3)n2)cc1	14.9 µM
CCOc1ccc(C(=O)Nc2cc(C)ccn2)cc1	13.8 µM
COc1ccc(NC2=NCC(Cc3ccc(Br)cc3)S2)cc1 (stereo unspecified)	26.2 µM
CC(=O)NC(c1ccc(Cl)cc1)c1ccc2cccnc2c1O (stereo unspecified)	1.16 µM
CC(C)C(=O)NC(c1ccc(Cl)cc1Cl)c1ccc2cccnc2c1O (stereo unspecified)	3 µM
Oc1cccc2ccc(Nc3ccccn3)nc12	8.91 µM
CCN(CC)c1ccc(/C=N/Nc2nc(C)cc(=O)[nH]2)c(O)c1	1.41 µM
CCOc1ccc(OCc2cccc(C(=O)N/N=C/c3cccnc3)c2)cc1	> 26 µM (inactive)
CC(=NNC(=S)N1CCCCC1)c1cccc(C)n1	> 26 µM (inactive)
NC(=S)N/N=C/c1ncc(C(F)(F)F)cc1Cl	17.9 µM
Cc1ccc2[nH]c3c(N4CCN(Cc5ccccc5)CC4)ncnc3c2c1	12.2 µM
CCCCC(=O)NC(c1ccc(Cl)cc1)c1ccc2cccnc2c1O (stereo unspecified)	4.35 µM
C/C(=N\NC(=O)c1cccc(Br)c1)c1ccccn1	3.59 µM
C=CCn1c(O)c(N=NC(=S)Nc2ccccc2F)c2cc(S(=O)(=O)N3CCOCC3)ccc21	> 26 µM (inactive)
CCc1cc2c(N3CCN(c4ccccc4)CC3)ncnc2s1	26.4 µM
O=C(N/N=C/c1sc2ccccc2c1O)c1cccc2ccccc12	4.96 µM
COc1ccc(Cc2nnc(N/N=C/c3ccc(O)cc3)[nH]c2=O)cc1OC	3.56 µM
Cc1csc(N=Nc2ccc(N(C)C)cc2)[n+]1[O-]	5.71 µM
O=C(CF)N(O)c1ccc(C=Cc2ccccc2)cc1	> 26 µM (inactive)
Cc1oc2c(c1C(=O)c1ccc(Cl)cc1)C(=O)C(=O)c1ccccc1-2	4.37 µM

Compound	AC50
CCC(=O)NC(c1cc(Cl)c2cccnc2c1O)C(C)C (stereo unspecified)	9.32 µM
CCN(CC)CCC(=O)N1C/C(=C/c2ccccc2)C(=O)/C(=C\c2ccccc2)C1	3.88 µM
Fc1ccc2[nH]c3c(N4CCSCC4)ncnc3c2c1	9.97 µM
CCN1CCN(Cc2ccc(NC(=O)c3ccc(C)c(NC(=O)c4cc(-c5ccc(Br)cc5)n[nH]4)c3)cc2C(F)(F)F)CC1	15.6 µM
CCOC(=O)c1c(C)[nH]c(C(=O)N/N=C\c2ccccc2O)c1C	4.09 µM
c1ccc(-c2nc(-c3ccccn3)no2)cc1	7.87 µM
CCN(CC)c1ccc(C(NC(=O)C(C)C)c2ccc3cccnc3c2O)cc1 (stereo unspecified)	4.34 µM
COc1ccc2[nH]c(-c3ccc(C)cc3)cc(=O)c2c1	> 26 µM (inactive)
O=C(/C=C/c1ccco1)Oc1cc(Br)cc(/C=N/NC(=O)c2ccccc2O)c1	3.47 µM
CCNC(=S)NNC(=O)c1cc(-c2ccc(OCC)cc2)nc2ccccc12	23 µM
CC(=O)NC(c1cccc([N+](=O)[O-])c1)c1ccc2cccnc2c1O (stereo unspecified)	3.66 µM
Oc1ccc2ccccc2c1/C=N/Nc1nnc(-c2ncc[nH]2)c2ccccc12	2.32 µM
CCN1CCN(Cc2ccc(NC(=O)c3ccc(C)c(NC(=O)c4c[nH]c5cc(C(F)(F)F)ccc5c4=O)c3)cc2C(F)(F)F)CC1	4.09 µM
COc1ccccc1NC(=O)c1c(Nc2ccccc2C)sc(C(=O)Nc2cccc(Cl)c2)c1N	4.52 µM
Nc1nc2ccccc2n1C(=O)c1ccccc1	> 26 µM (inactive)
Nc1ccc(C(=O)N/N=C\c2cc(N=Nc3cccc4ccccc34)ccc2O)cc1	26.5 µM
COc1ccc(/C=N/Nc2cc(C)nc3ccc(OC)cc23)c(OC)c1	5.04 µM
COc1ccc(/C=C/c2nc3ccccc3n2C)cc1	2.27 µM
Cc1nc(N)nc(N)c1/C=C/C(C)(C)c1ccc(Cl)cc1	< 0.011 µM
Cc1ccc2nc(-c3ccccn3)[nH]c2c1	21.6 µM
c1ccc(CCCN2CCN(CCOC(c3ccccc3)c3ccccc3)CC2)cc1	16.5 µM

Compound	AC50
COc1ccc(O)c(/C=N/Nc2nc(Nc3ccccc3)nc(-n3nc(C)cc3C)n2)c1	7.55 µM
CCN(CC)c1ccc(/C=N/Nc2nc3ccccc3[nH]2)c(O)c1	4.51 µM
O=C(N/N=C/c1cc2c3c(c1O)CCCN3CCC2)c1ccccc1O	4.17 µM
Oc1ccc2ccccc2c1N=Nc1ccccn1	3.42 µM
COc1ccc(C=C2CS(=O)(=O)CC(=Cc3ccc(OC)cc3)C2=O)cc1	11.8 µM
O=C(NC1CCCCCCC1)c1cc(COc2ccc3ncccc3c2)on1	1.3 µM
C=CCNC(=S)N/N=C(\C)c1ccccn1	2.06 µM
CC(=NNC(=S)N1CCCCCC1)c1ccccn1	2.18 µM
COc1ccccc1-c1nc(-c2ccccn2)no1	5.63 µM
CCCc1nc2ccc(Br)cc2c(=O)n1-c1ccc([N+](=O)[O-])c(C(F)(F)F)c1	4.2 µM
COc1cccc(/C=N/Nc2nc3ccccc3[nH]2)c1O	5.26 µM
C(=N\Nc1nc2ccccc2[nH]1)/c1cccc2cccnc12	3.24 µM
c1ccc(C2=NNC(=NC3CC3)SC2)cc1	12.1 µM
O=C(N/N=C/c1c(O)ccc2ccccc12)c1ccc(Br)o1	4.46 µM
O=C1C(=C(c2ccccc2)N2CCOCC2)Cc2ccccc21	1.38 µM
COc1cnc(-c2ccccn2)nc1Sc1ccccc1Cl	18.8 µM
CCN1CCN(Cc2ccc(NC(=O)c3ccc(C)c(NC(=O)c4cccc5[nH]ccc45)c3)cc2C(F)(F)F)CC1	22.3 µM
O=C(CCl)N(c1ccc(Cl)cc1)c1c[nH]c2ccccc12	1.19 µM
CN(Cc1cnc2nc(N)nc(N)c2n1)c1ccc(C(=O)N[C@@H](CCC(=O)O)C(=O)O)cc1	0.016 µM
CCC(NC(=O)Nc1nnc(C(F)(F)F)s1)(C(F)(F)F)C(F)(F)F	9.8 µM
O=C1c2cccc3c([N+](=O)[O-])ccc(c23)C(=O)N1c1ccccn1	4.11 µM

Compound	AC50
Cc1ccc2[nH]c(C(=O)N/N=C/c3ccccc3O)c(C)c2c1	3.52 µM
Cc1cc(C)nc(SCc2ccc(C(=O)N/N=C/c3cccc(O)c3O)cc2)n1	20.3 µM
CC(=NNC(=S)Nc1ccc(C)cc1)c1ccccn1	0.624 µM
COc1ccc(-c2ccc(NC(=O)c3ccco3)cc2)nn1	7.75 µM
Cn1nnnc1N=N/C(=N/Nc1ccccc1)c1ccccc1	1.23 µM
c1ccc(CCNc2nc(-c3ccccn3)nc3ccccc23)cc1	1.13 µM
C#CCN(C[C@@H]1[C@@H](OC(=O)NCC2CCCCC2)[C@@H](OC(=O)NCC2CCCCC2)Cn2c(=O)ccc(=O)n21)S(=O)(=O)c1ccc(C)cc1	4.63 µM
CCN(CC)S(=O)(=O)c1cccc(NC(=O)Nc2cccc(C(F)(F)F)c2)c1	19.1 µM
Cn1c(/C=C/c2ccccc2)nc2ccccc21	9.76 µM
C#CCN(C[C@@H]1[C@@H](OC(=O)NCCCCCC)[C@@H](OC(=O)NCCCCCC)Cn2c(=O)ccc(=O)n21)S(=O)(=O)c1ccc(C)cc1	4.1 µM
COc1ccccc1N(C(C)=O)C1=C(Cl)C(=O)c2ccccc2C1=O	11.7 µM
CCOc1ccc(/C=C/[N+](=O)[O-])c2ccccc12	11.8 µM
CC(=O)NC(c1cccs1)c1cc(F)c2cccnc2c1O (stereo unspecified)	4.67 µM
O=C(Nc1nc2ccc(F)cc2s1)C1=COCCO1	18.7 µM
O=C(O)c1cc(/C=C/c2ccc(N3CCOCC3)cc2)nc2ccccc12	> 26 µM (inactive)
O=C(N/N=C/c1ccc[nH]1)c1ccc(COc2cccc3cccnc23)cc1	3.99 µM
COc1ccc(C(=O)NC2CCCc3c2cnn3-c2cccc(C)c2C)c(OC)n1 (stereo unspecified)	24.1 µM
OC1(c2cccc(C(F)(F)F)c2)CCN(c2ncnc3c2[nH]c2ccc(F)cc23)CC1	17.8 µM
